Several values for one entry are separate records, joined by “and”; a condition that tells them apart may be missing. Identical values can stand only once.
Test system: wild type C57BL/6 and GLP-1R-/- mice
Test: Mouse glucose tolerance test (IPGTT, wild type and GLP-1R-/- mice)
Format: in vivo
Design: Plasma Insulin Net AUC: unit not given beside the values; Blood Glucose Net AUC: unit not given here
Settings: for Blood Glucose / Plasma Insulin: 10 mpk, 10 mg/kg; for Blood Glucose Net AUC / Plasma Insulin Net AUC: @ 10, individual animals
Method: Wild type C57BL/6 mice and GLP-1R^-/- mice were fed a high fat diet (D12492i, Research Diets) for 6 weeks prior to GTT. On the day of study, mice were fasted at 1 h post lights on, and body weights were measured. […] Mice were then dosed PO at a volume of 10 ml/kg with vehicle (0.5% methylcellulose), MK-2305 (a GPR40 partial agonist described in Hauge et al) at 10 mg/kg, or AP1 at 30 mg/kg. Dosages of MK-2305 and AP1 were administered at maximal efficacious doses as determined by acute dose titrations with efficacy determined via reduction in glucose during an IPGTT (data not shown). […] Blood glucose was measured again (time = 0) just prior to an intraperitoneal (IP) dextrose challenge of 1 g/kg at 10 ml/kg dose volume (Dextrose, Hospira Inc., Lake Forrest IL). A subset of vehicle treated mice was injected with 0.9% NaCl saline to serve as negative control. Blood glucose was then measured at 10, 20, 40, 60, and 120 min after challenge. To capture insulin secretion during the IPGTT, blood via tail vein was collected at t = - 60, 0, 10, 20, 40, 60 min post challenge.
Net AUC was calculated by subtracting the average AUC of the saline group from each groups’ total AUC.
Blood for insulin, glucagon, GLP-1, GIP, and PYY measurements was collected into K2EDTA Microtainer tubes (BD, Franklin Lakes, NJ) pre-treated with DPP4 inhibitor (Millipore, Billerica, MA) and cOmplete™ Protease Inhibitor Cocktail Tablets (Roche Diagnostics, Indianapolis, IN). Tubes were centrifuged for 10 minutes at 5000 RPM, and plasma was aliquotted for analysis. Plasma insulin levels were measured via EIA (Mesoscale Discovery ELISA Kit, Gaithersburg MD). Rat plasma total GLP-1 was measured using Total GLP-1 (ver.2) Assay Kit (Cat#: K150JVC). The measurement of active GLP-1 was carried out in a similar manner as that described for total GLP-1 assay with the exception that MSD Active GLP-1 (ver. 2) assay kit (Cat# K150JWC) was used. Rat plasma glucagon was measured using an in-house glucagon assay developed as a MSD format sandwich immunoassay (Merck & Co., Inc., MRL, Kenilworth, NJ USA). The antibody specificity was cross validated via mass- spec using procedures described in Lee et al. Briefly, MSD Streptavidin Gold plates were coated with 2 μg/ml biotin mouse monoclonal antibody generated to glucagon. Test samples were added to the plates and a separate Sulfo- tagged monoclonal antibody was used to detect the captured glucagon protein (2 μg/ml). The ELISA was carried out in the standard reagents in the MSD format. The plate was read on the SECTOR Imager 6000 Reader. Metabolic hormones GIP (Gastric Inhibitory Polypeptide) and PYY (Peptide YY) were measured in rat plasma using the Rat Metabolic Magnetic Bead Panel (EMD Millipore, Billerica, MA). The assay was performed according to manufacturer protocol.

[1] = GLP-1R-/- and wild type mice, MK-2305 10 mg/kg, AP1 30 mg/kg PO
[2] = KO mice, Time 0, individual animals
[3] = KO mice, Time 10, individual animals
[4] = KO mice, Time 20, individual animals
[5] = KO mice, Time 40, individual animals
[6] = KO mice, Time 60, individual animals
[7] = KO mice, Time -60, individual animals
[8] = WT mice, Time 0, individual animals
[9] = WT mice, Time 10, individual animals
[10] = WT mice, Time 20, individual animals
[11] = WT mice, Time 60, individual animals
[12] = WT mice, Time -60, individual animals

For O=C1NC(=O)C(C2CCOc3cc(Oc4ccc(C(F)(F)F)cc4Cl)ccc32)S1 (stereo not drawn) [MK-2305, reference compound], the “blood glucose excursion during IPGTT” value [1] was “reduced”, the “insulin following dextrose challenge (IPGTT)” value [1] was “no effect” and the “Blood Glucose” value [2] was 151 mg/dL and 150 mg/dL and 186 mg/dL and 194 mg/dL and 152 mg/dL and 171 mg/dL and 161 mg/dL. For the same compound, the “Plasma Insulin” value [2] was 0.848 ng/mL and 0.42 ng/mL and 0.528 ng/mL and 1.053 ng/mL and 0.383 ng/mL and 0.356 ng/mL and 0.379 ng/mL, the “Blood Glucose” value [3] was 359 mg/dL and 371 mg/dL and 443 mg/dL and 389 mg/dL and 416 mg/dL and 530 mg/dL and the “Plasma Insulin” value [3] was 1.175 ng/mL and 0.368 ng/mL and 0.464 ng/mL and 0.199 ng/mL and 0.51 ng/mL and 0.24 ng/mL and 0.661 ng/mL. The “Blood Glucose” value [4] was 361 mg/dL and 257 mg/dL and 455 mg/dL and 411 mg/dL and 438 mg/dL and 432 mg/dL and 566 mg/dL, the “Plasma Insulin” value [4] was 1.151 ng/mL and 0.543 ng/mL and 0.441 ng/mL and 1.015 ng/mL and 0.58 ng/mL and 0.405 ng/mL and 0.254 ng/mL and the “Blood Glucose” value [5] was 332 mg/dL and 292 mg/dL and 386 mg/dL. The “Plasma Insulin” value [5] was 0.591 ng/mL and 0.442 ng/mL and 0.194 ng/mL and 0.983 ng/mL and 0.199 ng/mL and 0.278 ng/mL and 0.213 ng/mL, the “Blood Glucose” value [6] was 346 mg/dL and 269 mg/dL and 435 mg/dL and 335 mg/dL and 332 mg/dL and 352 mg/dL and 512 mg/dL and the “Plasma Insulin” value [6] was 0.58 ng/mL and 0.57 ng/mL and 0.264 ng/mL and 0.784 ng/mL and 0.335 ng/mL and 0.275 ng/mL and 0.261 ng/mL. For the same compound, the “Blood Glucose” value (KO mice, Time 120, individual animals) was 303 mg/dL and 186 mg/dL and 397 mg/dL and 270 mg/dL and 224 mg/dL and 260 mg/dL and 402 mg/dL, the “Blood Glucose” value [7] was 180 mg/dL and 203 mg/dL and 200 mg/dL and 205 mg/dL and 188 mg/dL and 236 mg/dL and 197 mg/dL and the “Plasma Insulin” value [7] was 0.786 ng/mL and 0.573 ng/mL and 0.295 ng/mL and 0.819 ng/mL and 0.47 ng/mL and 0.336 ng/mL and 0.379 ng/mL. For the same compound, the “Blood Glucose” value (KO mice, Time -90, individual animals) was 165 mg/dL and 181 mg/dL and 160 mg/dL and 198 mg/dL and 154 mg/dL and 193 mg/dL and 185 mg/dL, the “Blood Glucose Net AUC” value (KO mice) was 26136 and 8611 and -3694 and 17776 and 10566 and 8161 and 9656 and the “Plasma Insulin Net AUC” value (KO mice) was -6.842 and 24.846 and 2.455 and -5.609 and 23.949 and -2.988 and -7.445. For the same compound, the “Blood Glucose” value [8] was 173 mg/dl and 130 mg/dl (2×) and 172 mg/dl and 136 mg/dl and 151 mg/dl and 154 mg/dl, the “Plasma Insulin” value [8] was 2.909 ng/mL and 1.344 ng/mL and 1.761 ng/mL and 0.655 ng/mL and 1.362 ng/mL and 1.244 ng/mL and 1.598 ng/mL and the “Blood Glucose” value [9] was 300 mg/dL and 375 mg/dL and 416 mg/dL and 324 mg/dL and 318 mg/dL and 369 mg/dL and 438 mg/dL. For the same compound, the “Plasma Insulin” value [9] was 1.538 ng/mL and 1.501 ng/mL and 2.253 ng/mL and 0.689 ng/mL and 0.787 ng/mL and 2.31 ng/mL and 1.19 ng/mL, the “Blood Glucose” value [10] was 341 mg/dL and 386 mg/dL and 396 mg/dL and 278 mg/dL and 357 mg/dL and 365 mg/dL and 487 mg/dL and the “Plasma Insulin” value [10] was 3.87 ng/mL and 1.373 ng/mL and 1.842 ng/mL and 0.672 ng/mL and 0.733 ng/mL and 1.031 ng/mL and 1.681 ng/mL. The “Plasma Insulin” value (WT mice, Time 40, individual animals) was 3.585 ng/mL and 1.27 ng/mL and 1.204 ng/mL and 0.278 ng/mL and 1.824 ng/mL and 0.546 ng/mL and 1.72 ng/mL, the “Blood Glucose” value [11] was 285 mg/dL and 328 mg/dL and 270 mg/dL and 195 mg/dL and 296 mg/dL and 260 mg/dL and 442 mg/dL and the “Plasma Insulin” value [11] was 2.679 ng/mL and 1.626 ng/mL and 1.133 ng/mL and 0.252 ng/mL and 0.763 ng/mL and 0.592 ng/mL and 1.175 ng/mL. For the same compound, the “Blood Glucose” value (WT mice, Time 120, individual animals) was 328 mg/dL and 300 mg/dL and 191 mg/dL and 160 mg/dL and 218 mg/dL and 205 mg/dL and 311 mg/dL, the “Blood Glucose” value [12] was 177 mg/dl (2×) and 182 mg/dl and 162 mg/dl (2×) and 153 mg/dl and 176 mg/dl and the “Plasma Insulin” value [12] was 2.201 ng/mL and 1.482 ng/mL and 1.004 ng/mL and 0.467 ng/mL and 0.749 ng/mL and 1.475 ng/mL and 2.049 ng/mL. For the same compound, the “Blood Glucose” value (WT mice, Time -90, individual animals) was 182 mg/dL and 151 mg/dL and 166 mg/dL and 146 mg/dL and 175 mg/dL and 155 mg/dL and 164 mg/dL, the “Blood Glucose Net AUC” value (WT mice) was 22732 and 10047 and 12357 and 7637 and -1383 and 8197 and 6232 and the “Plasma Insulin Net AUC” value (WT mice) was 17.355 and 112.532 and 10.066 and 20.452 and -45.584 and -4.157 and -12.281.

Reference: article PMC5650142, “GPR40 partial agonists and AgoPAMs: Differentiating effects on glucose and hormonal secretions in the rodent” (PLoS ONE, 2017)
